pEC50: −log10 of the molar value. Where a SMILES comes first, the peptide text is derived from it. [ ]: non-standard residue; d: D form. Aib = CC(C)(N)C(=O)O
How the values were obtained:
[1] = target: T1, hGLP-1R (Homo sapiens, UniProt P43220); test: hGLP-1R-mediated cAMP induction assay in CHO cell line; type: cell-based; conditions: Table 3; for pEC50: CHO hGLP1R cells; for GLP-1 Receptor Relative Potency: against native GLP-1;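 for all read-outs here: CHO cells expressing human GLP-1R, treated 30 min at 37 °C, intracellular cAMP measured by competitive fluorescent immunoassay and converted via a cAMP standard curve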
T1 construct: expressed in transfected cells; host or cells: CHO
T1 sequence (P43220 24-463): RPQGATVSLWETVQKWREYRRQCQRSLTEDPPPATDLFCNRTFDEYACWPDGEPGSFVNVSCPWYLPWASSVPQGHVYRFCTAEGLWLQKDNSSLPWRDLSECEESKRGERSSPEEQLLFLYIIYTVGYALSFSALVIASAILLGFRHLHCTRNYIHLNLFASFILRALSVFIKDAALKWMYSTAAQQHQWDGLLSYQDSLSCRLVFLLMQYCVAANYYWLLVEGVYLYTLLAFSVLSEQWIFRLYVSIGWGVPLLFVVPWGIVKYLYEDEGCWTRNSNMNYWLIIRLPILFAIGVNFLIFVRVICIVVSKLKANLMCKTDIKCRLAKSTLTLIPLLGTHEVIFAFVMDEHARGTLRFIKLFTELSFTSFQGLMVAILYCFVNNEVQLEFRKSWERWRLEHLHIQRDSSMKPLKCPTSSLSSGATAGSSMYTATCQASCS

[2] = target: T2, hGIPR (Homo sapiens, UniProt P48546); test: hGIPR-mediated cAMP induction assay in CHO cell line; type: cell-based; conditions: Table 3; for pEC50: CHO hGIPR cells; for GIP Receptor Relative Potency: against native GIP
T2 construct: expressed in transfected cells; host or cells: CHO
T2 sequence (P48546 22-466): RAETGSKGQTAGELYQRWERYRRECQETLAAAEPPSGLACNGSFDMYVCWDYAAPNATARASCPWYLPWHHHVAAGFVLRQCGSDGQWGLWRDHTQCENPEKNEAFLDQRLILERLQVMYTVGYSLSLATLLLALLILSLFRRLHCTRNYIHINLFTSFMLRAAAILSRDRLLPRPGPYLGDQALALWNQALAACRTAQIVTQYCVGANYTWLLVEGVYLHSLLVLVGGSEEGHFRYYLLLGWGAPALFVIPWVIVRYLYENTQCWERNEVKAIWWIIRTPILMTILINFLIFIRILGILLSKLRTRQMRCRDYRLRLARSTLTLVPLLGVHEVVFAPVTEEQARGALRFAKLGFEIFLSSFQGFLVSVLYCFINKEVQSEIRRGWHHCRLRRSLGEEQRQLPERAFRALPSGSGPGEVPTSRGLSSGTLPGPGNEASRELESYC
Text: The cAMP in the sample or standard competes with horseradish peroxidase (HRP)-labeled cAMP conjugate for binding sites on the anti-cAMP antibodies. In the absence of cAMP, most of the HRP-cAMP conjugate is bound to the antibody. Increasing concentrations of cAMP competitively decrease the amount of bound conjugate, thus decreasing measured HRP activity.
Assay kit: CatchPoint™ Cyclic-AMP Fluorescent Assay Kit (Molecular Devices, Product # R8088)
Cell lines: CHO hGLP1R, CHO hGIPR
Cell seeding: CHO hGLP1R or CHO hGIPR cells: 10,000 cells/well/100 uL at 37° C. 5% CO2 overnight.
Gently aspirate off media and wash the cells with KRBG Buffer, 100 uL/well.
Incubate the plate for 10 min at room temperature. Then add the KRBG buffer with 3× final concentration of the tested samples (5-foled series diluted from 5,000 nM), 50 uL/well. Incubate the plate at 37° C. 5% CO2 for 30 min.
Add 50 uL of Lysis buffer to each well and put the plate on a shaker for 10 min.
Place 40 uL of samples and analyze in appropriate wells. And test the cAMP concentration in each sample by following the manufacture's instruction.
Detect the fluorescence signal at Ex: 490 nm and Em: 530 nm. Transfer the FI signal to cAMP concentration by the cAMP standard curve. The Dose-response curve and EC50 were obtained by logistic fitting of Origin 8.

Structure (SMILES) | pEC50 [1] | GLP-1 Receptor Relative Potency [1] | pEC50 [2] | GIP Receptor Relative Potency [2]
CCCCCCCCCCCCCCCC(=O)NCCCC[C@H](NC(=O)[C@H](CO)NC(=O)[C@@H]1CCCN1C(=O)[C@@H]1CCCN1C(=O)[C@@H]1CCCN1C(=O)[C@H](C)NC(=O)CNC(=O)[C@H](CO)NC(=O)[C@H](CO)NC(=O)[C@@H]1CCCN1C(=O)CNC(=O)CNC(=O)[C@H](CCCCN)NC(=O)[C@@H](NC(=O)[C@H](CC(C)C)NC(=O)[C@H](Cc1c[nH]c2ccccc12)NC(=O)[C@H](C)NC(=O)[C@@H](NC(=O)[C@H](Cc1ccccc1)NC(=O)[C@H](CCC(=O)O)NC(=O)[C@H](CCCNC(=N)N)NC(=O)[C@@H](NC(=O)[C@H](C)NC(=O)[C@H](CCC(=O)O)NC(=O)[C@H](CCCCN)NC(=O)[C@H](CCC(=O)O)NC(=O)[C@H](CCSC)NC(=O)[C@H](Cc1ccc(O)cc1)NC(=O)[C@@H](NC(=O)[C@H](CO)NC(=O)[C@H](Cc1ccc(O)cc1)NC(=O)[C@H](CC(=O)O)NC(=O)[C@H](CO)NC(=O)[C@@H](NC(=O)[C@H](Cc1ccccc1)NC(=O)[C@@H](NC(=O)CNC(=O)[C@H](CCC(=O)O)NC(=O)C(C)(C)NC(=O)[C@@H](N)Cc1ccc(O)cc1)[C@@H](C)O)[C@@H](C)O)[C@@H](C)CC)C(C)C)[C@@H](C)CC)C(C)C)C(N)=O [Compound 068] | 9.77 | 566 | 10.43 | 38.9
CC[C@H](C)[C@H](NC(=O)[C@H](Cc1ccccc1)NC(=O)[C@H](CCC(=O)O)NC(=O)[C@H](CCCNC(=N)N)NC(=O)[C@@H](NC(=O)[C@H](C)NC(=O)[C@H](CCC(=O)O)NC(=O)[C@H](CCCCN)NC(=O)[C@H](CCC(=O)O)NC(=O)[C@H](CCSC)NC(=O)[C@H](Cc1ccc(O)cc1)NC(=O)[C@@H](NC(=O)[C@H](CO)NC(=O)[C@H](Cc1ccc(O)cc1)NC(=O)[C@H](CC(=O)O)NC(=O)[C@H](CO)NC(=O)[C@@H](NC(=O)[C@H](Cc1ccccc1)NC(=O)[C@@H](NC(=O)CNC(=O)[C@H](CCC(=O)O)NC(=O)C(C)(C)NC(=O)[C@@H](N)Cc1ccc(O)cc1)[C@@H](C)O)[C@@H](C)O)[C@@H](C)CC)C(C)C)C(=O)N[C@@H](C)C(=O)N[C@@H](Cc1c[nH]c2ccccc12)C(=O)N[C@@H](CC(C)C)C(=O)N[C@H](C(=O)N[C@@H](CCCCN)C(=O)NCC(=O)NCC(=O)N1CCC[C@H]1C(=O)N[C@@H](CO)C(=O)N[C@@H](CO)C(=O)NCC(=O)N[C@@H](C)C(=O)N1CCC[C@H]1C(=O)N1CCC[C@H]1C(=O)N1CCC[C@H]1C(=O)N[C@@H](CO)C(=O)N[C@@H](CCCCNC(=O)CCCC[C@@H]1SC[C@@H]2NC(=O)N[C@@H]21)C(N)=O)C(C)C [Compound 074] | 8.98 | 90.7 | 9.37 | 39.5
CC[C@H](C)[C@H](NC(=O)[C@H](Cc1ccccc1)NC(=O)[C@H](CCC(=O)O)NC(=O)[C@H](CCCNC(=N)N)NC(=O)[C@@H](NC(=O)[C@H](C)NC(=O)[C@H](CCC(=O)O)NC(=O)[C@H](CCCCN)NC(=O)[C@H](CCC(=O)O)NC(=O)[C@H](CCSC)NC(=O)[C@H](Cc1ccc(O)cc1)NC(=O)[C@@H](NC(=O)[C@H](CO)NC(=O)[C@H](Cc1ccc(O)cc1)NC(=O)[C@H](CC(=O)O)NC(=O)[C@H](CO)NC(=O)[C@@H](NC(=O)[C@H](Cc1ccccc1)NC(=O)[C@@H](NC(=O)CNC(=O)[C@H](CCC(=O)O)NC(=O)C(C)(C)NC(=O)[C@@H](N)Cc1ccc(O)cc1)[C@@H](C)O)[C@@H](C)O)[C@@H](C)CC)C(C)C)C(=O)N[C@@H](C)C(=O)N[C@@H](Cc1c[nH]c2ccccc12)C(=O)N[C@@H](CC(C)C)C(=O)N[C@H](C(=O)N[C@@H](CCCCN)C(=O)NCC(=O)N[C@@H](CCCNC(=N)N)C(=O)N[C@@H](CCCNC(=N)N)C(=O)N[C@@H](CCCNC(=N)N)C(=O)N[C@@H](CCCNC(=N)N)C(=O)N[C@@H](CCCNC(=N)N)C(=O)N[C@@H](CCCNC(=N)N)C(N)=O)C(C)C [Compound 075] (H-Y[Aib]EGTFTSDYSIYMEKEAVREFIAWLVKGRRRRRR-NH2; N-terminus assumed) |  | 77.7 |  | 8.3
